In patent US20240024403A1, “Compositions and Methods for Managing Weight” (Unigen, Inc., priority 2012, published 2024):

Assay: High fat diet induced obesity (DIO) mouse model
Format: in vivo, C57CL/6J mice
Settings: for Weight Gain: group mean; for Total Body Weight: DIO mice (Table 52); for Total Body Weight / Body Weight: in g (unit assumed); for Body Weight Gain / Body Weight: mean
Protocol: C57CL/6J mice aged 4-6 weeks (Korea Research Institute of Bioscience & Biotechnology, Ohchang, Korea) were housed in Polycarbonate cages (five mice per cage) in a room with a 12 hr:12 hr light-dark cycle and an ambient temperature of 24° C. All the mice were fed a commercial chow diet for 1 week after arrival in the animal facility. Mice were then divided into normal and obesity groups and fed with normal diet (ND) and high fat diets (HFD) respectively. The HFD group was divided into multiple treatment groups: a high fat diet vehicle group (HFD), an orlistat (purchased as OTC drug Alli®) positive control treatment group (ORI, 40 mg/kg of animal weight, 2 times/day) and optionally a sibutramine positive control treatment group (10 mg/kg, 1 time/day). The HFD contained 340 g of fat/kg of HFD (310 g lard plus 30 g soybean oil; Harlan Laboratories, USA). The HFD was formulated to provide 60% of the total energy generated by the diet from fat by replacing carbohydrate energy with lard and soybean oil, whereas the normal diet (ND) group was fed a diet providing only 18% of the total diet energy from fat(Harlan Laboratories, USA).
Body weight was measured once each week and feed intake was measured twice per week. At the end of the experimental period, following a 12 hr. fasting period, the animals were anesthetized with ether, and blood was drawn from the abdominal vein. Liver and kidney and adipose tissues (epididymal, retroperitoneal, perirenal adipose tissues) were removed from each animal, rinsed with physiological saline, and weighed. Serum concentrations of glucose, total cholesterol, triglycerides, and LDL-cholesterol were determined using automatic analyzer (INTEGRA 400, Roche, Germany). Statistical significance of test results was measured using the Student's t-test.

[1] = week 1, mice fed a high fat diet, Mutamba fractions 250 mg/kg oral 2 times per day
[2] = week 2, mice fed a high fat diet, Mutamba fractions 250 mg/kg oral 2 times per day
[3] = week 3, mice fed a high fat diet, Mutamba fractions 250 mg/kg oral 2 times per day
[4] = week 4, mice fed a high fat diet, Mutamba fractions 250 mg/kg oral 2 times per day
[5] = week 5, mice fed a high fat diet, Mutamba fractions 250 mg/kg oral 2 times per day
[6] = week 6, mice fed a high fat diet, Mutamba fractions 250 mg/kg oral 2 times per day
[7] = week 7, mice fed a high fat diet, Mutamba fractions 250 mg/kg oral 2 times per day
[8] = week 8, mice fed a high fat diet, Mutamba fractions 250 mg/kg oral 2 times per day

SMILES: CC(C)CC(N(C)C)C1(c2ccc(Cl)cc2)CCC1 (stereo not shown) [SIB, sibutramine]
- Weight Gain (week 1, DIO mice, combination (1:1) 2000 mg/kg twice a day): −3.63
- Weight Gain (week 1, DIO mice, combination (10:1) 1100 mg/kg twice a day): −3.63
- Total Body Weight (week 1, SIB 10 mg/kg): 34.24
- Body Weight Gain [1]: −2.72
- Body Weight [1]: 35.69
- Body Weight Gain (week 2, DIO mice, SIB 10 mg/kg, ORI 40 mg/kg, Mutamba extract 32 (G1) 1000 mg/kg/day oral): −4.84
- Body Weight Gain (week 2, DIO mice, SIB 10 mg/kg, ORI 40 mg/kg, Mutamba extract 33-2 G1 1000 mg/kg): −2.39
- Weight Gain (week 2, DIO mice, combination (1:1) 2000 mg/kg twice a day): −5.37
- Weight Gain (week 2, DIO mice, combination (10:1) 1100 mg/kg twice a day): −5.37
- Total Body Weight (week 2, SIB 10 mg/kg): 33.96
- Body Weight Gain [2]: −2.39
- Body Weight [2]: 36.03
- Body Weight Gain (week 3, DIO mice, SIB 10 mg/kg, ORI 40 mg/kg, Mutamba extract 32 (G1) 1000 mg/kg/day oral): −2.75
- Body Weight Gain (week 3, DIO mice, SIB 10 mg/kg, ORI 40 mg/kg, Mutamba extract 33-2 G1 1000 mg/kg): −0.39
- Weight Gain (week 3, DIO mice, combination (1:1) 2000 mg/kg twice a day): −4.69
- Weight Gain (week 3, DIO mice, combination (10:1) 1100 mg/kg twice a day): −4.69
- Total Body Weight (week 3, SIB 10 mg/kg): 36.05
- Body Weight Gain [3]: −0.39
- Body Weight [3]: 38.02
- Body Weight Gain (week 4, DIO mice, SIB 10 mg/kg, ORI 40 mg/kg, Mutamba extract 32 (G1) 1000 mg/kg/day oral): −2.17
- Body Weight Gain (week 4, DIO mice, SIB 10 mg/kg, ORI 40 mg/kg, Mutamba extract 33-2 G1 1000 mg/kg): 1.47
- Weight Gain (week 4, DIO mice, combination (1:1) 2000 mg/kg twice a day): −4.82
- Weight Gain (week 4, DIO mice, combination (10:1) 1100 mg/kg twice a day): −4.82
- Total Body Weight (week 4, SIB 10 mg/kg): 36.64
- Body Weight Gain [4]: 1.47
- Body Weight [4]: 39.89
- Body Weight Gain (week 5, DIO mice, SIB 10 mg/kg, ORI 40 mg/kg, Mutamba extract 32 (G1) 1000 mg/kg/day oral): −1.38
- Body Weight Gain (week 5, DIO mice, SIB 10 mg/kg, ORI 40 mg/kg, Mutamba extract 33-2 G1 1000 mg/kg): 2.54
- Weight Gain (week 5, DIO mice, combination (1:1) 2000 mg/kg twice a day): −4.25
- Weight Gain (week 5, DIO mice, combination (10:1) 1100 mg/kg twice a day): −4.25
- Total Body Weight (week 5, SIB 10 mg/kg): 37.42
- Body Weight Gain [5]: 2.54
- Body Weight [5]: 40.95
- Body Weight Gain (week 6, DIO mice, SIB 10 mg/kg, ORI 40 mg/kg, Mutamba extract 32 (G1) 1000 mg/kg/day oral): −0.27
- Body Weight Gain (week 6, DIO mice, SIB 10 mg/kg, ORI 40 mg/kg, Mutamba extract 33-2 G1 1000 mg/kg): 3.99
- Weight Gain (week 6, DIO mice, combination (1:1) 2000 mg/kg twice a day): −3.90
- Weight Gain (week 6, DIO mice, combination (10:1) 1100 mg/kg twice a day): −3.90
- Total Body Weight (week 6, SIB 10 mg/kg): 38.54
- Body Weight Gain [6]: 3.99
- Body Weight [6]: 42.40
- Body Weight Gain (week 7, DIO mice, SIB 10 mg/kg, ORI 40 mg/kg, Mutamba extract 32 (G1) 1000 mg/kg/day oral): −0.06
- Body Weight Gain (week 7, DIO mice, SIB 10 mg/kg, ORI 40 mg/kg, Mutamba extract 33-2 G1 1000 mg/kg): 5.15
- Weight Gain (week 7, DIO mice, combination (1:1) 2000 mg/kg twice a day): −2.27
- Weight Gain (week 7, DIO mice, combination (10:1) 1100 mg/kg twice a day): −2.27
- Total Body Weight (week 7, SIB 10 mg/kg): 38.74
- Body Weight Gain [7]: 5.15
- Body Weight [7]: 43.57
- Body Weight Gain (week 8, DIO mice, SIB 10 mg/kg, ORI 40 mg/kg, Mutamba extract 32 (G1) 1000 mg/kg/day oral): 1.15
- Body Weight Gain (week 8, DIO mice, SIB 10 mg/kg, ORI 40 mg/kg, Mutamba extract 33-2 G1 1000 mg/kg): 6.27
- Total Body Weight (week 8, SIB 10 mg/kg): 39.95
- Body Weight Gain [8]: 6.27
- Body Weight [8]: 44.69
